# Test results taken from ChEMBL document CHEMBL3507680, “University of Dundee, Gates Library screen for HepG2 cell viability”.
# Assay: Human HepG2 cell viability assay in 384 well format
# Format: toxicity, cell-based
# Design: dose 125 nL, time 70.5 hour; cytotoxicity at 70.5 h: concentration not given beside the values
# Conditions: HepG2 cells, read-out: Inhibition
row,SMILES,cytotoxicity at 70.5 h
1,O=C(C[C@H]1[C@H]2CN(Cc3ccc(F)cc3)C[C@@H]12)N1CCCC1,-3.22%
2,O=C(c1ccoc1)N(Cc1ccncc1)C1CC1,-14%
3,CN(C)Cc1cn2c(n1)CN(C(=O)Cc1ccsc1)CC2,-0.503%
4,CCOCCCNC(=O)Cc1cccc(F)c1,1.71%
5,CCOCCCC(=O)Nc1c(-c2ccc(F)cc2)ncn1C,0.124%
6,Cc1n[nH]cc1CNCC(c1ccsc1)N(C)C (centres undefined),-7.79%
7,CCN(CC)Cc1ccc(C(=O)N2CCN(CC(C)O)CC2)cc1 (centres undefined),-4.2%
8,CN(C)C(=O)CN1CCCCC1c1nc(N)ncc1-c1ccccc1 (centres undefined),-17.6%
9,O=C(Nc1ccncc1)NC1CCN(c2ccccc2OC(F)F)C1 (centres undefined),1.15%
10,COC(=O)CCNC(=O)c1ccc(OCc2ccccc2)nc1,-6.92%
11,COc1cc(N2CCC3(CC(=O)N(Cc4csc(C)n4)C3)C2)ncn1 (centres undefined),-6.14%
12,COCCN1C(=O)C2(CCC(C(=O)Nc3ccc(C)cc3)CC2)N=C1C (centres undefined),10.5%
13,Cc1nc(NC(=O)NCc2cccnc2NCCN(C)C)sc1C,-2.85%
14,CSc1ncc(C(=O)N(C)C(C)Cc2ccccn2)cn1 (centres undefined),-5.33%
15,O=C1NCCN1C1CCN(Cc2nc(-c3ccccc3)no2)CC1,13.9%
16,Cc1cnn(CCNCC(=O)NC(C)c2ccc3c(c2)OCCO3)c1 (centres undefined),-3.11%
17,CN(C)c1ncnc2c1CCN(S(=O)(=O)c1cccc(Cl)c1Cl)C2,-4.66%
18,CC(C)Nc1ncnc2c1CCN(C(=O)N1CCOCC1)CC2,10.6%
19,Cc1nc(C)n(CC2CCCN2c2ncnc3sc(C)c(C)c23)n1 (centres undefined),-3.31%
20,CCN(CC1CCOC1)C(=O)Nc1ccc(OC)nc1 (centres undefined),24.3%
21,CC(Cc1ccsc1)NC(=O)c1cc(N2CCNC2=O)ccc1F (centres undefined),-9.62%
22,c1cc2c(cc1CN1CCCC3(CCOC3)C1)OCO2 (centres undefined),41.1%
23,CC(C)N(C)S(=O)(=O)N(Cc1cccs1)CC1CCCO1 (centres undefined),37.4%

row,SMILES,cytotoxicity at 70.5 h
1,Cc1cc(C)n(CC(C)NC(=O)C2(c3ccc(F)cc3)CC2)n1 (centres undefined),-10.8%
2,CCc1nc(C2CCCN2CCC(=O)N2CCc3ccccc32)no1 (centres undefined),20.5%
3,Cc1cnn(C2CN(CCCOc3ccc(C#N)cc3)C2)c1,-2.39%
4,COc1ccc(CN(C)Cc2ccnc(C3CCCO3)n2)cc1 (centres undefined),-2.06%
5,COc1nc2c(cc1C(=O)N(C)Cc1noc3c1CCCC3)CCC2,-0.83%
6,CN(Cc1cnn(C)c1)C(=O)NC1CCC(O)CC1 (centres undefined),-7.28%
7,Cc1noc(C)c1-c1cccc(CC2CCN(C(=O)CCC(=O)O)C2)n1 (centres undefined),-11.7%
8,Cc1nn(C)c(Cl)c1C1CCCN1C(=O)c1cccn1C (centres undefined),-10.5%
9,Cc1cc(C#N)ccc1S(=O)(=O)N1CCN(C)Cc2ccccc21,-0.39%
10,NC(=O)C1CCN(S(=O)(=O)c2cnn(-c3ccccc3)c2)CC1,-4.05%
11,CN1CCN(c2ncc3c(=O)n(Cc4ccco4)ccc3n2)CC1,-9.22%
12,CSCC[C@H](NC(=O)Cn1ccc2c(Cl)cccc21)C(=O)O,-11.9%
13,Cc1noc(C)c1CCC(=O)NCC1(O)CCN(c2ccccn2)C1 (centres undefined),-6.52%
14,CN1CCN(c2ncnc3c2CCN(C(=O)c2cccn2C)CC3)CC1,6.05%
15,CC(=O)N[C@@H](CC(C)C)C(=O)N1CCC(n2cc(CO)nn2)CC1,-4.38%
16,COc1cc([C@@H]2N[C@H](c3nccs3)Cc3ccsc32)cc(OC)c1OC,-0.55%
17,CN(C)c1ccc(C(=O)N2CCC(c3cc4cnccc4[nH]3)CC2)cc1,-0.667%
18,CC(C1CC1)N(CC(=O)NCC(F)(F)F)C1CC1 (centres undefined),13.2%
19,CN(C)c1ccc(CC2CCN(c3cnccn3)C2)nn1 (centres undefined),-8.95%
20,O=C(Nc1cnc(C2CC2)nc1)N1CCCC1,-1.33%
21,O=C(NCc1ccccn1)[C@@H]1COC[C@H]2CN(C3CCOCC3)C[C@H]21,2.68%
22,CCc1n[nH]c(C2CN(CC(=O)N(C)Cc3ccco3)CCO2)n1 (centres undefined),-11.1%
23,CC(C)(C)c1ncc2c(n1)CN(C(=O)c1ccc3[nH]cnc3c1)C2,-3.17%

row,SMILES,cytotoxicity at 70.5 h
1,COCCN1Cc2ccccc2C2(CCN(C(=O)c3ccno3)CC2)C1,2.49%
2,CN(C)C(=O)CO[C@@H]1CC[C@H]2[C@H]1OCCN2C(=O)C1CCOCC1,-3.79%
3,c1ccc(Cc2n[nH]c(C3CCOC3)n2)cc1 (centres undefined),-3.76%
4,c1cncc(CN2CC[C@H]3O[C@@H](COCC4CCOCC4)CC[C@H]32)c1,-7.03%
5,Cc1sc(CN)nc1-c1ccccc1,-3.17%
6,Cc1ccc([C@@H]2CN(S(=O)(=O)Cc3ccccc3)C[C@H]2N(C)C)cc1,1.88%
7,Cc1cnc(C(=O)N2CCCC(n3nc(C)nc3C)C2)cn1 (centres undefined),-11.1%
8,c1ccc(OCc2n[nH]c3c2CN(CC2CC2)C3)nc1,-2.5%
9,CS(=O)(=O)Nc1cccc(CNC(=O)CCc2ccsc2)c1,-1.95%
10,CC(C1CC1)N(C)Cc1nnc(-c2ccc(Br)s2)o1 (centres undefined),-2.75%
11,COCCCN(Cc1ccncc1)C(=O)CSc1ccc(F)cc1,-5.19%
12,CSc1ccccc1CN1CCCn2nc(CNC(=O)N(C)C)cc2C1,-1.85%
13,CCc1nc(N2CCCC(CCOC)(C(=O)O)C2)ncc1C (centres undefined),-4.01%
14,Cc1ccc(C(=O)Nc2ccccc2N2CCCC2)n1C,12%
15,CN(C(=O)NC1CC1)C1CCN(c2ccc(Cl)cc2)CC1,-7.5%
16,Cc1oc(-c2cccs2)nc1C(=O)N(C)C1(C#N)CCC1,-17.6%
17,CNC(=O)CCc1cc(C2CCNCC2)nc(C)n1,-5.9%
18,Fc1ccc(CN[C@@H]2COC[C@H]2c2ccc(F)cc2)cc1,0.602%
19,c1ccc(CN2CCC3(CC2)CC(Oc2cccnc2)C3)nc1,-12.3%
20,CC(OCC1CC1)C(=O)Nc1cccc(C(=O)Nc2ccncc2)c1 (centres undefined),-10.9%
21,CCC(CN1CCOCC1)n1cncc1-c1ccc2c(c1)CCN2CC (centres undefined),21%
22,CCn1ccnc1CN1CCCN(C(=O)Cn2nc(C)cc2C)CC1,-19.3%
23,CC[C@H]1CN(S(=O)(=O)c2ccccc2)CC[C@H]1CC(=O)O,5.41%

row,SMILES,cytotoxicity at 70.5 h
1,O=C(CCN1C(=O)CCC1=O)Nc1cnn(-c2ccccc2Cl)c1,10%
2,Cc1cc2nc(C(C)C)cc(NCC(c3ccccn3)N(C)C)n2n1 (centres undefined),3.67%
3,NC(=O)CCSCc1cc(Br)cc2cccnc12,10.9%
4,O=C(c1ccccn1)N1C[C@@H]2CC[C@H](C1)N(C(=O)CCc1ccsc1)C2,-10.8%
5,Cc1nc(C2CCCCN2S(C)(=O)=O)no1 (centres undefined),-13.4%
6,COc1ccc(C)c(NC(=O)NCc2cccc(N(C)C)n2)c1,-6.19%
7,Cn1cc(NC(=O)c2cc3c(s2)CCCC3)cn1,-0.0582%
8,Cc1ccc(CC(=O)N2CCN(C(C)c3ccccc3F)CC2)cn1 (centres undefined),-2.9%
9,C=C(C)CN1CCC(C(=O)c2cc(F)ccc2F)CC1,0.664%
10,Cc1cnn(C2CCCN(C(=O)Cc3cn4ccsc4n3)C2)c1 (centres undefined),-5.39%
11,O=C(C1CCC1)N1CCC2(CCCN2CC2CC2)CC1,-0.744%
12,Cn1cnnc1S(=O)(=O)C1CCN(S(=O)(=O)c2c(Cl)cccc2Cl)CC1,-8.23%
13,Cc1occc1C(=O)N1C[C@H](Oc2ccccn2)[C@H]2OCCC[C@H]21,-10.8%
14,CNc1cc(C2CN(Cc3csc(C)n3)CCO2)nc(C)n1 (centres undefined),9.88%
15,CCOC(=O)CNC(=O)C1CN(C(=O)c2cnccn2)C1,-5.07%
16,O=C(c1ccc(Br)cc1F)N1CCc2ccncc21,3.99%
17,O=C(Cn1cc(Cl)cn1)Nc1ccc2c(c1)OCCCO2,25.9%
18,Cc1oc2c(c1C(=O)N1CC[C@H](O)[C@]3(CCCO3)C1)CCCC2,-5.7%
19,c1c(CN2CCOCC2)nc2n1CCN(C1CCOCC1)C2,-1.69%
20,CN1CCN(C(=O)c2cn(Cc3ccccc3)c3ncccc23)CC1,-3.43%
21,CCSc1ccc(C(=O)Nc2c(C)nn(C(C)C)c2C)cn1,14.1%
22,Cc1ccc(CN(C)c2cc(N3CCCC3CO)ncn2)s1 (centres undefined),-4.83%
23,O=C(Cn1cc(I)cn1)Nc1cccnc1,-9.49%

row,SMILES,cytotoxicity at 70.5 h
1,CCC(CC)C(=O)N1CCc2nc(N3CCCC3)nc(C)c2CC1,-12.2%
2,CN(Cc1nc2ccccc2[nH]1)C(=O)CN(C)c1ccc(Cl)cn1,7.7%
3,Cc1ccccc1SC1CCN(C(=O)C2CNC(=O)N2)CC1 (centres undefined),2.9%
4,CCN(CC)[C@@H]1CN(S(=O)(=O)c2cn(C)cn2)[C@@H]2CCCO[C@H]12,26.4%
5,Cc1noc(C)c1CNC(=O)C1(NS(C)(=O)=O)CCCCC1,-5.85%
6,Cc1ccc(S(=O)(=O)N2C[C@H]3C[C@H](NC(=O)c4ccnn4C)[C@H]3C2)cc1,46.1%
7,Clc1ccc(C2(NCc3noc(C4CC4)n3)CCCC2)cc1,-0.425%
8,COc1ccc(Cl)cc1S(=O)(=O)N(C)CC(N)=O,-5%
9,CC(C)(O)C1CCCN(C(=O)Nc2nc(-c3ccccc3)ns2)C1 (centres undefined),-3.5%
10,CC(C)CN1C(=O)C2(CCCC2)NC1c1c[nH]nc1-c1cccnc1 (centres undefined),-3.57%
11,CC(C)OCC(=O)N1CCC(c2ncncc2-c2ccnc(N)c2)C1 (centres undefined),-5.98%
12,Cc1ccnc(NC(=O)c2ccc(Cl)o2)c1,-9.97%
13,O=C(NCCNc1ncccn1)N1CCN(C2CCCC2)CC1,-8.5%
14,COc1ccccc1C1(CNCc2cccc(O)c2)CCOCC1,-2.11%
15,COCCN1CCC(NC(=O)C/C=C/c2ccc(C(C)C)cc2)CC1,2.87%
16,COc1ccc(CC(=O)NCCn2nc3ccccn3c2=O)cc1,12.9%
17,CC(c1ncc(C(C)(C)C)o1)N1CCN(c2ccncc2)CC1 (centres undefined),-2.28%
18,CCc1ccc(-c2cn3c(C(=O)NCC(C)C(=O)NC)csc3n2)cc1 (centres undefined),-1.36%
19,Cc1ccsc1C(=O)N1CCC2(CC(N(C)c3ccncn3)C2)C1 (centres undefined),-4.77%
20,CCCc1ncc(C(=O)N2CCOc3ncccc32)s1,-2.81%
21,c1csc(-c2noc(CCCN3CCCC3Cn3cccn3)n2)c1 (centres undefined),-8.63%
22,O=C(C1CC1)N1CCC2(CCN2Cc2ccc(F)cc2)C1 (centres undefined),-0.516%
